Article PMC8888861, “Inhibition of the NLRP3 Inflammasome Activation by Manoalide Ameliorates Experimental Autoimmune Encephalomyelitis Pathogenesis” (Frontiers in Cell and Developmental Biology, 2022)

Molecular target: T1, NLRP3 (Mus musculus, UniProt Q8R4B8)
T1 construct: endogenous NLRP3 in lysates of LPS-primed BMDMs
Experiment: DARTS (pronase protection) in BMDM lysates at […]
Assay type: cell-based

T1 sequence (Q8R4B8 whole entry): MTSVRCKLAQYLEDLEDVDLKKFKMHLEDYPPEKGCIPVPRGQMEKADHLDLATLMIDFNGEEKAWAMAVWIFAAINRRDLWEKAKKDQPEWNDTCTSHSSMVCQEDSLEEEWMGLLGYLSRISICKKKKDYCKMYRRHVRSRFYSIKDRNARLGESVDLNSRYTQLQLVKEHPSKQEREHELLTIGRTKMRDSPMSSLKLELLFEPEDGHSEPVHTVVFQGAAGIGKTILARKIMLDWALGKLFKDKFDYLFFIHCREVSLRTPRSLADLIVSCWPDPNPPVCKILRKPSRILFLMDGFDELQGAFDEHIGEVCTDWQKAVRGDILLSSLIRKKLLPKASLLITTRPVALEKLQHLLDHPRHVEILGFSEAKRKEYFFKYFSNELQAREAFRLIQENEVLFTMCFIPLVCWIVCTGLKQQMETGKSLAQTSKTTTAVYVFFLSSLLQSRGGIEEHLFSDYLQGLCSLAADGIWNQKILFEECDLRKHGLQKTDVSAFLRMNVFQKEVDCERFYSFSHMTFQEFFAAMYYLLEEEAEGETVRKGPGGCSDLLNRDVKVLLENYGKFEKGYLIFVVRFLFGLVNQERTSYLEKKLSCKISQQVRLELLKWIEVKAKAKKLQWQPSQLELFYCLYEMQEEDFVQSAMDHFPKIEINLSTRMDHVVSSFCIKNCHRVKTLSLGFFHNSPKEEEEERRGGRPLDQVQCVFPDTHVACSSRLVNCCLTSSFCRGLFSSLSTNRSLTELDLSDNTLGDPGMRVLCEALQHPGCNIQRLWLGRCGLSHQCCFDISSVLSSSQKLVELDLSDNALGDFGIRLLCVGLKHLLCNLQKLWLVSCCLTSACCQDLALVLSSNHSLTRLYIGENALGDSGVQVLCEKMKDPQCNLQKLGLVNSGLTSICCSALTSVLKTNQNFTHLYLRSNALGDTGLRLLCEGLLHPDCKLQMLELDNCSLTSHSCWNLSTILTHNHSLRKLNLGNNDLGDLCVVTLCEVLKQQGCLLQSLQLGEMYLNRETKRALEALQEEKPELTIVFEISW

`CC1=C(CC/C(C)=C/CCC2=CC[C@H](C3=CC(=O)O[C@H]3O)O[C@H]2O)C(C)(C)CCC1` [manoalide] was tested, and the “DARTS (pronase protection) in BMDM lysates at 10 and 50 μM” value was “Pronase-mediated degradation of NLRP3 is reversed in dose-dependent manner by manoalide”.
